According to paper PMC5030359, “Cathelicidin Antimicrobial Peptides with Reduced Activation of Toll-Like Receptor Signaling Have Potent Bactericidal Activity against Colistin-Resistant Bacteria” (mBio, 2016):
Converted amounts (≈) assume the structure as drawn. Read-outs that look alike come from different tables or passages of the source. Ends that are not written are not given here. Peptide text beside a SMILES is read from it.

Key:
TLR4 = TLR4 signaling: IL-6 ELISA in BEAS-2B cells treated with LPS; assay type: cell-based, human; conditions: BEAS-2B cells, LPS 0.5 µg/ml, peptide 2 µM, ELISA, control cells = 100%; mean (SD) of minimum three assays
Text: (§1) FIG 1 Cathelicidins from animals have distinct abilities to act on Toll-like receptor signaling. (A) A phylogenetic relationship of cathelicidins from mammals. The figure is derived from results of Zanetti et al. (12). (B) Names, lengths, and sequences of cathelicidin peptides and their ability to affect Toll-like receptor signaling. The peptide lengths are shown in the numbers of amino acids (AAs). The residues predicted to form an α-helix are underlined with an arrow. The basic, acidic, and aromatic residues are colored blue, red, and green, respectively. TLR signaling was assessed by the amount of IL-6 cytokine produced in BEAS-2B cells. IL-6 levels were quantified using enzyme-linked immunosorbent assay (ELISA), and the level of IL-6 in the control cells is normalized to 100%. The peptides were added to the cells at a final concentration of 2 μM. Each result is the mean of a minimum of three independent assays, and the standard deviations (SD) are shown in parentheses.
LL-37 at 2 µM final concentration reduced IL-6 production to approximately half that of the untreated cells (Fig. 1B).
(§2) The concentration of IL-6 secreted into the cell medium was quantified using the OptEIA kit (BD Biosciences, San Jose, CA). A typical assay used 1 × 10^4 BEAS-2B cells/well grown for 24 h in flat-bottom 96-well plates. Poly(I⋅C) was added to a final concentration of 0.13 µg/ml for 24 h. ODN2006 was added to 0.5 nM. Lipopolysaccharides were used at 0.5 µg/ml. All data shown are the means and ranges of 1 standard error for a minimum of three independent samples. Data sets were compared using the Student t test calculated with GraphPad Prism 5 software.

TLR9 = TLR9 signaling: IL-6 ELISA in BEAS-2B cells treated with CpG DNA ODN2006; assay type: cell-based, human; conditions: ODN2006 0.5 nM, peptide 2 µM, control cells = 100%, mean (SD) of minimum three assays
Protocol: (§3) Eight cathelicidins produced by eight mammals were selected for an initial examination (Fig. 1A). […] However, the number of charged residues and the lengths of the disordered residues differed (Fig. 1B). The peptides were added to BEAS-2B cells, a human lung epithelial cell line that expresses multiple TLRs and can release proinflammatory cytokines in response to their activation and the enhancement of cytokine release by LL-37 ([15]). BEAS-2B cells treated with the TLR3 agonist poly(I⋅C) and 2 µM LL-37 increased interleukin 6 (IL-6) production by threefold. All of the nonhuman cathelicidins tested had lower TLR3 signaling compared to LL-37 (Fig. 1B). The lack of TLR3 signaling by the nonhuman cathelicidins was due to the inability to use the formyl peptide receptor-like receptor 1 to endocytose the double-stranded RNA (dsRNA)−LL-37 complex and deliver the poly(I⋅C) to TLR3 in endosomes ([17]) (see Fig. S1 in the supplemental material). All of the nonhuman cathelicidins also had reduced activation of TLR9 compared to LL-37 (Fig. 1B).
as §1, §2

TLR3 = TLR3 signaling: IL-6 ELISA in BEAS-2B cells treated with poly(I·C); assay type: cell-based, human; conditions: poly(I·C) […], peptide 2 µM, ELISA, control cells = 100%, mean (SD) of minimum three assays
Protocol: as §3, §1, §2

V. cholerae = assay type: cell-based, Vibrio cholerae; conditions: 5 min with 100 µM ampicillin or 4 µM SMAP-29D, relative to PBS control cells
Protocol: (§4) The number of CFU of E. cloacae 4080 were quantified as a function of time of incubation with a 2 µM concentration of the individual peptides. In the reactions with kanamycin (Kan), 25 µg/ml of kanamycin sulfate was used. […] The initial inoculum was 10^6 CFU in LB. […] (D to F) Fluorescence microscopy of V. vulnificus cells. […] An enlarged image of a single cell is highlighted in the boxed region. White arrows denote bulges extending from the bacterial membrane. […] Bacterial DNA is stained with DAPI (blue). […] The fate of cellular cytoplasmic contents was tracked following expression of a FliM-tdTomato fusion protein (red).

V. vulnificus = assay type: cell-based, Vibrio vulnificus; conditions: 5 min with 100 µM ampicillin or 4 µM SMAP-29D, relative to PBS control cells
Protocol: as §4

V. fischeri = assay: Bacterial killing, colony formation (CFU); assay type: cell-based; conditions: 2 µM peptide, 30 min incubation
V. angustum = assay: Bacterial killing, colony formation (CFU); assay type: cell-based; conditions: 2 µM peptide, 30 min incubation
K. pneumoniae = assay: Bacterial killing, colony formation (CFU); assay type: cell-based, Klebsiella pneumoniae
Protocol: A total of 1 × 10^5 CFU of the bacteria were incubated for 30 min with the concentration of peptide or colistin shown. Approximately 500 CFU was then added as a droplet onto nonselective media for 18 h. […] The number shown is the median value of three or four independent assays. The number in parentheses is the standard deviation of all of the assays. […] (C) Quantitative analysis of the viable colonies formed by colistin-resistant bacteria. […] The numbers are the means of three independent assays, and those in parentheses are the range for 1 standard deviation.

E. cloacae 4080 = assay: Bacterial killing, colony formation (CFU); assay type: cell-based, Enterobacter cloacae
Protocol: The number of CFU of E. cloacae 4080 were quantified as a function of time of incubation with a 2 µM concentration of the individual peptides. In the reactions with kanamycin (Kan), 25 µg/ml of kanamycin sulfate was used. […] The initial inoculum was 10^6 CFU in LB.

E. coli = assay type: cell-based, Escherichia coli; conditions: 2 µM peptide
Protocol: A total of 1 × 10^5 CFU of the bacteria were incubated for 30 min with the concentration of peptide or colistin shown. Approximately 500 CFU was then added as a droplet onto nonselective media for 18 h. […] The number shown is the median value of three or four independent assays. The number in parentheses is the standard deviation of all of the assays. […] The numbers are the means of three independent assays, and those in parentheses are the range for 1 standard deviation.
Incubation time: 0 min 5 min 30 min

[1] = strains with MIC of 16 µg/ml or less / strains tested
[2] = broth microdilution, CAMHB, at least three independent assays
[3] = 2 µM peptide, 30 min incubation

Protocol for 19 Gram-negative strains: (A) Sequences of the cathelicidins, the numbers of bacterial strains killed, and hRBC lysis by the cathelicidins. […] The bacterial species tested are Klebsiella pneumoniae (K. p.), Serratia marcescens (S. m.), Enterobacter cloacae (E. cl.), Escherichia coli (E. c.), and Pseudomonas aeruginosa (P. a.). MICs were determined by the microdilution assay. […] The results are the median values of at least three independent assays.
We tested a panel of cathelicidins for inhibiting growth of 19 Gram-negative strains from the family Enterobacteriaceae and the nonfermentative bacteria. The species tested were Enterobacter cloacae ([2]), Escherichia coli ([5]), Klebsiella pneumoniae ([4]), Pseudomonas aeruginosa ([4]), and Serratia marcescens ([4]). All of the strains selected have been characterized for their antibiotic resistance profiles.
(§5) Antimicrobial activity was determined using the broth microdilution method based on the guidelines of the Clinical and Laboratory Standards Institute (CLSI) ([39]), using cation-adjusted Mueller-Hinton broth (CAMHB) as the testing medium. Reference Gram-positive and Gram-negative bacteria were tested, including both enteric and Pseudomonas aeruginosa strains. Each MIC was determined in at least three independent assays.
Protocol for E. faecalis: as §5
Protocol for Enterobacter cloacae: (§6) The bacterial species tested are Klebsiella pneumoniae (K. p.), Serratia marcescens (S. m.), Enterobacter cloacae (E. cl.), Escherichia coli (E. c.), and Pseudomonas aeruginosa (P. a.). MICs were determined by the microdilution assay. […] The results are the median values of at least three independent assays.
as §5
Protocol for Escherichia coli: as §6, §5
Protocol for Klebsiella pneumoniae: as §6, §5
Protocol for Pseudomonas aeruginosa: as §6, §5
Protocol for S. aureus: as §5
Protocol for Serratia marcescens: as §6, §5

## GLRKKFRKTRKRIQKLGRKIGKTGRKVWKAWREYGQIPYPCRI [CAP-11]
Klebsiella pneumoniae; [1]
  # strains inhibited at 16 µg/ml peptide K. p.: 4/4
TLR4
  % IL-6 produced compared to controls (SD) TLR4: 9(4) %
Pseudomonas aeruginosa
  # strains inhibited at 16 µg/ml peptide P. a.: 4/4
19 Gram-negative strains; 19 Gram-negative strains, MIC of 16 µg/ml or less
  No. of strains inhibited at 16 µg/ml/total no. of strains: 16
TLR9
  % IL-6 produced compared to controls (SD) TLR9: 79(10) %
Enterobacter cloacae; [1]
  # strains inhibited at 16 µg/ml peptide E. cl.: 2/2
Escherichia coli
  # strains inhibited at 16 µg/ml peptide E. c.: 5/6
Serratia marcescens; [1]
  # strains inhibited at 16 µg/ml peptide S. m.: 1/3
TLR3
  % IL-6 produced compared to controls (SD) TLR3: 148(8) %

## CAP-18
Klebsiella pneumoniae; [1]
  # strains inhibited at 16 µg/ml peptide K. p.: 4/4
TLR4
  % IL-6 produced compared to controls (SD) TLR4: 42(13) %
Pseudomonas aeruginosa
  # strains inhibited at 16 µg/ml peptide P. a.: 3/4
19 Gram-negative strains
  No. of strains inhibited at 16 µg/ml/total no. of strains: 11/19
TLR9
  % IL-6 produced compared to controls (SD) TLR9: 121(23) %
Enterobacter cloacae; [1]
  # strains inhibited at 16 µg/ml peptide E. cl.: 1/2
Escherichia coli
  # strains inhibited at 16 µg/ml peptide E. c.: 3/6
Serratia marcescens; [1]
  # strains inhibited at 16 µg/ml peptide S. m.: 0/3
TLR3
  % IL-6 produced compared to controls (SD) TLR3: 234(30) %

## CRAMP
Klebsiella pneumoniae; [1]
  # strains inhibited at 16 µg/ml peptide K. p.: 0/4
TLR4
  % IL-6 produced compared to controls (SD) TLR4: 41(7) %
Pseudomonas aeruginosa
  # strains inhibited at 16 µg/ml peptide P. a.: 0/4
19 Gram-negative strains
  No. of strains inhibited at 16 µg/ml/total no. of strains: 2/19
TLR9
  % IL-6 produced compared to controls (SD) TLR9: 41(7) %
Enterobacter cloacae; [1]
  # strains inhibited at 16 µg/ml peptide E. cl.: 1/2
Escherichia coli
  # strains inhibited at 16 µg/ml peptide E. c.: 1/6
Serratia marcescens; [1]
  # strains inhibited at 16 µg/ml peptide S. m.: 0/3
TLR3
  % IL-6 produced compared to controls (SD) TLR3: 57(10) %

## CC1(C)S[C@@H]2[C@H](NC(=O)[C@H](N)c3ccccc3)C(=O)N2[C@H]1C(=O)O [ampicillin]
V. cholerae
  reduction in CFU, V. cholerae: less than 1 log10 unit
V. vulnificus
  reduction in CFU, V. vulnificus: less than 1 log10 unit

## CC[C@H](C)[C@H](NC(=O)[C@@H](NC(=O)[C@@H]1CCCN1C(=O)[C@H](CO)NC(=O)[C@H](CC(C)C)NC(=O)[C@H](CCCCN)NC(=O)[C@H](CCCCN)NC(=O)[C@H](Cc1ccccc1)NC(=O)[C@H](CC(C)C)NC(=O)[C@H](CCCCN)NC(=O)[C@H](CCCCN)NC(=O)[C@H](CC(C)C)NC(=O)[C@H](CCCCN)NC(=O)[C@H](CCCCN)NC(=O)[C@H](CCCNC(=N)N)NC(=O)[C@H](CC(C)C)NC(=O)[C@H](CCCNC(=N)N)NC(=O)[C@H](CCCCN)NC(=O)[C@H](Cc1ccccc1)NC(=O)[C@H](CCCNC(=N)N)NC(=O)CN)C(C)C)C(=O)N1CCC[C@H]1C(=O)N[C@@H](CC(C)C)C(=O)N[C@@H](CC(C)C)C(=O)N[C@@H](Cc1c[nH]cn1)C(=O)N[C@@H](CC(C)C)C(=O)NCC(=O)O [BMAP-27B] (H-GRFKRLRKKLKKLFKKLSPVIPLLHLG-OH)
Klebsiella pneumoniae
  # strains inhibited at 16 µg/ml peptide K. p.: 4/4
V. fischeri
  CFU/ml (SD) V. fischeri, 30 min: < 20 CFU/ml
  Fold redu. from To, V. fischeri, 30 min: > 48,000 fold
Pseudomonas aeruginosa
  # strains inhibited at 16 µg/ml peptide P. a.: 4/4
  MIC P. aeruginosa 4083: 4 µg/mL (≈ 1.24 µM)
  MIC P. aeruginosa PAO1: 4 µg/mL (≈ 1.24 µM)
Pseudomonas aeruginosa; [2]
  MIC P. aeruginosa PAO1 ΔOprD: 4 µg/mL (≈ 1.24 µM)
V. angustum
  CFU/ml (SD) V. angustum, 30 min: 27 CFU/ml
  Fold redu. from To, V. angustum, 30 min: > 88,460 fold
K. pneumoniae; 2 µM peptide, 5 min incubation
  CFU/ml (SD) K. pneumonia 8893, 5 min: < 200 CFU/ml
  Fold redu. from To, K. pneumonia 8893, 5 min: 1050 fold
  Fold redu. from To, K. pneumonia C-2, 5 min: 25 fold
K. pneumoniae; [3]
  CFU/ml (SD) K. pneumonia 8893, 30 min: < 25 CFU/ml
  CFU/ml (SD) K. pneumonia C-2, 30 min: 50 CFU/ml
  Fold redu. from To, K. pneumonia 8893, 30 min: > 8,400 fold
  Fold redu. from To, K. pneumonia C-2, 30 min: > 13,000 fold
K. pneumoniae; 2 µM, Fig. 5C (K. pneumoniae 59) and data not shown
  reduction in CFU, colistin-resistant K. pneumoniae: > 2 log10 unit
19 Gram-negative strains
  No. of strains inhibited at 16 µg/ml/total no. of strains: 19/19
E. cloacae 4080
  Fold redu. from To, En. cloacae 4080, 5 min: 2400
  Fold redu. from To, En. cloacae 4080, 30 min: > 19,200
E. cloacae 4080; 2 µM peptide (sub-heading; title says 1 µM), 5 min incubation
  CFU/ml (SD) En. cloacae 4080, 5 min: < 200 CFU/ml
E. cloacae 4080; 2 µM peptide, 120-min incubation, E. cloacae
  reduction in CFU, 120 min: > 4 log10 unit
E. cloacae 4080; [3]
  CFU/ml (SD) En. cloacae 4080, 30 min: < 25 CFU/ml
Enterobacter cloacae
  # strains inhibited at 16 µg/ml peptide E. cl.: 2/2
Enterobacter cloacae; [2]
  MIC E. cloacae 4092: 4 µg/mL (≈ 1.24 µM)
Escherichia coli
  # strains inhibited at 16 µg/ml peptide E. c.: 6/6
Escherichia coli; [2]
  MIC E. coli MC4100: 4 µg/mL (≈ 1.24 µM)
E. coli; 5 min incubation
  CFU/ml (SD) E. coli IU-342, 5 min: < 200 CFU/ml
  Fold redu. from To, E. coli IU-342, 5 min: 850 fold
E. coli; 30 min incubation
  CFU/ml (SD) E. coli IU-342, 30 min: < 25 CFU/ml
  Fold redu. from To, E. coli IU-342, 30 min: > 6,800 fold
E. faecalis
  MIC E. faecalis 29212: >32 µg/mL
  MIC E. faecalis 51299: >32 µg/mL
S. aureus
  MIC S. aureus 25923: 32 µg/mL (≈ 9.95 µM)
  MIC S. aureus 29213: 32 µg/mL (≈ 9.95 µM)
Serratia marcescens
  # strains inhibited at 16 µg/ml peptide S. m.: 3/3
